Where two headings read alike, the source gives them in different places.
Target: T1, P2X7 receptor (Homo sapiens, UniProt Q99572)
T1 construct: host or cells: SH-SY5Y
T1 sequence (Q99572 1-595): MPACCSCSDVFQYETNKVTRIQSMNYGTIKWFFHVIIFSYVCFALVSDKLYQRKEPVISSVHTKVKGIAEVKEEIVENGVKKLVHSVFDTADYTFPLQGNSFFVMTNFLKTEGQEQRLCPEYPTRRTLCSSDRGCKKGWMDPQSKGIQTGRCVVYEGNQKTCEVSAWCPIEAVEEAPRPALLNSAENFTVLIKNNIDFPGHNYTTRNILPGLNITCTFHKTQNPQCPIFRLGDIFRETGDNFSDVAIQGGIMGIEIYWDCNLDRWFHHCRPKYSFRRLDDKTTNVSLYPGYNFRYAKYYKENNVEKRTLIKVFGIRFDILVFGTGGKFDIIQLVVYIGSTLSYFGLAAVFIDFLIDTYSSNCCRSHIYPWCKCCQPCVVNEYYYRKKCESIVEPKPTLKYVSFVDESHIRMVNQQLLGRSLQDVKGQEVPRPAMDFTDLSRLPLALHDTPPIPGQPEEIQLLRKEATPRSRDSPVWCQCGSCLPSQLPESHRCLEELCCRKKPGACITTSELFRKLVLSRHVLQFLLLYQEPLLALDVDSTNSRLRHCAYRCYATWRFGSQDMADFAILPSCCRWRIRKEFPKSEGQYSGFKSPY
Test: P2X7 calcium mobilization assay, high throughput, antagonist activity (Example 4A)
Type: cell-based
Outline: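 FLIPR^TETRA calcium read-out: maximum RFU per well minus average no-agonist control, with agonist wells giving the average positive maximum. Cells seeded at 100,000/well one day ahead, dye-loaded 1 h, rinsed, then exposed to compound for 1 h at room temperature.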

[1] = SH-SY5Y cells, 50% decrease in fluorescence response to 80 μM BzATP, read-out: IC50
[2] = fluorescence response of cells exposed to 80 μM 2′(3′)-O-(4-benzoyl-benzoyl)adenosine 5′-triphosphate, Example 4A, read-out: IC50

SMILES	IC50 [2]	other results
Nc1ccn(Cc2cn3c(C(=O)NCC45CC6CC(CC(C6)C4)C5)cccc3n2)n1 [Compound 208, N-(adamantan-1-ylmethyl)-2-[(3-amino-1H-pyrazol-1-yl)methyl]imidazo[1,2-a]pyridine-5-carboxamide]		IC50 [1]: < 2000 nM
Nc1ccnn1Cc1cn2c(C(=O)NCC34CC5CC(CC(C5)C3)C4)cccc2n1 [Compound 209, N-(adamantan-1-ylmethyl)-2-[(5-amino-1H-pyrazol-1-yl)methyl]imidazo[1,2-a]pyridine-5-carboxamide]		IC50 [1]: < 2000 nM
Cc1ccn(Cc2cn3c(C(=O)NCC45CC6CC(CC(C6)C4)C5)cccc3n2)n1 [Compound 210, N-(adamantan-1-ylmethyl)-2-[(3-methyl-1H-pyrazol-1-yl)methyl]imidazo[1,2-a]pyridine-5-carboxamide]		IC50 [1]: < 2000 nM
O=C(NCC12CC3CC(CC(C3)C1)C2)c1cccc2nc(Cn3ccccc3=O)cn12 [Compound 211, N-(adamantan-1-ylmethyl)-2-[(2-oxopyridin-1(2H)-yl)methyl]imidazo[1,2-a]pyridine-5-carboxamide]		IC50 [1]: < 2000 nM
CCNC(=O)Cc1cn2c(C(=O)NCC(CC(C)C)c3ccccc3)cccc2n1 (stereo not shown) [Compound 220, 2-[2-(ethylamino)-2-oxoethyl]-N-(4-methyl-2-phenylpentyl) imidazo [1,2-a]pyridine-5-carboxamide]	< 2000 nM	
CC(C)CC(CNC(=O)c1cccc2nc(CC(=O)NCC3CC3)cn12)c1ccccc1 (stereo not shown) [Compound 222, 2-{2-[(cyclopropylmethyl)amino]-2-oxoethyl}-N-(4-methyl-2-phenylpentyl) imidazo [1,2-a]pyridine-5-carboxamide]	< 2000 nM	
CC(C)CNC(=O)Cc1cn2c(C(=O)NCC(CC(C)C)c3ccccc3)cccc2n1 (stereo not shown) [Compound 223, 2-[2-(isobutylamino)-2-oxoethyl]-N-(4-methyl-2-phenylpentyl) imidazo [1,2-a]pyridine-5-carboxamide]	< 2000 nM	
CC(C)CC(CNC(=O)c1cccc2nc(CC(=O)NC3CCCC3)cn12)c1ccccc1 (stereo not shown) [Compound 224, 2-[2-(cyclopentylamino)-2-oxoethyl]-N-(4-methyl-2-phenylpentyl) imidazo [1,2-a]pyridine-5-carboxamide]	< 2000 nM	
CC(C)CC(CNC(=O)c1cccc2nc(CC(=O)NCC(C)(C)C)cn12)c1ccccc1 (stereo not shown) [Compound 225, 2-{2-[(2,2-dimethylpropyl)amino]-2-oxoethyl}-N-(4-methyl-2-phenylpentyl) imidazo [1,2-a]pyridine-5-carboxamide]	< 2000 nM	
CC(C)CC(CNC(=O)c1cccc2nc(CC(=O)NCC(F)(F)F)cn12)c1ccccc1 (stereo not shown) [Compound 229, N-(4-methyl-2-phenylpentyl)-2-{2-oxo-2-[(2,2,2-trifluoroethyl)amino]ethyl}imidazo[1,2-a]pyridine-5-carboxamide]	< 2000 nM	
CCCOCCNC(=O)Cc1cn2c(C(=O)NCC(CC(C)C)c3ccccc3)cccc2n1 (stereo not shown) [Compound 230, N-(4-methyl-2-phenylpentyl)-2-{2-oxo-2-[(2-propoxyethyl)amino]ethyl}imidazo[1,2-a]pyridine-5-carboxamide]	< 2000 nM	
CCC(COC)NC(=O)Cc1cn2c(C(=O)NCC(CC(C)C)c3ccccc3)cccc2n1 (stereo not shown) [Compound 231, 2-(2-{[1-(methoxymethyl)propyl]amino}-2-oxoethyl)-N-(4-methyl-2-phenylpentyl) imidazo [1,2-a]pyridine-5-carboxamide]	< 2000 nM	
CC(C)CC(CNC(=O)c1cccc2nc(CC(=O)NC(C)C(N)=O)cn12)c1ccccc1 (stereo not shown) [Compound 235, 2-{2-[(2-amino-1-methyl-2-oxoethyl)amino]-2-oxoethyl}-N-(4-methyl-2-phenylpentyl)imidazo [1,2-a]pyridine-5-carboxamide]	< 2000 nM	
CC(C)CC(CNC(=O)c1cccc2nc(CC(=O)N3CCCC(C(F)(F)F)C3)cn12)c1ccccc1 (stereo not shown) [Compound 238, N-(4-methyl-2-phenylpentyl)-2-{2-oxo-2-[3-(trifluoromethyl)piperidin-1-yl]ethyl}imidazo [1,2-a]pyridine-5-carboxamide]	< 2000 nM	
COC1CCN(C(=O)Cc2cn3c(C(=O)NCC(CC(C)C)c4ccccc4)cccc3n2)CC1 (stereo not shown) [Compound 239, 2-[2-(4-methoxypiperidin-1-yl)-2-oxoethyl]-N-(4-methyl-2-phenylpentyl)imidazo [1,2-a]pyridine-5-carboxamide]	< 2000 nM	
COCC1CCCN(C(=O)Cc2cn3c(C(=O)NCC(CC(C)C)c4ccccc4)cccc3n2)C1 (stereo not shown) [Compound 240, 2-{2-[3-(methoxymethyl)piperidin-1-yl]-2-oxoethyl}-N-(4-methyl-2-phenylpentyl)imidazo [1,2-a]pyridine-5-carboxamide]	< 2000 nM	

SMILES	IC50 [2]	other results
COCC1CCCCN1C(=O)Cc1cn2c(C(=O)NCC(CC(C)C)c3ccccc3)cccc2n1 (stereo not shown) [Compound 241, 2-{2-[2-(methoxymethyl)piperidin-1-yl]-2-oxoethyl}-N-(4-methyl-2-phenylpentyl)imidazo [1,2-a]pyridine-5-carboxamide]	< 2000 nM	
CC(C)CC(CNC(=O)c1cccc2nc(CC(=O)N3CCCC3)cn12)c1ccccc1 (stereo not shown) [Compound 242, N-(4-methyl-2-phenylpentyl)-2-(2-oxo-2-pyrrolidin-1-ylethyl)imidazo[1,2-a]pyridine-5-carboxamide]	< 2000 nM	
CC(C)CC(CNC(=O)c1cccc2nc(CC(=O)N3CCCCC3)cn12)c1ccccc1 (stereo not shown) [Compound 243, N-(4-methyl-2-phenylpentyl)-2-(2-oxo-2-piperidin-1-ylethyl)imidazo[1,2-a]pyridine-5-carboxamide]	< 2000 nM	
CC(C)CC(CNC(=O)c1cccc2nc(CC(=O)N3CCCC(C)(C)C3)cn12)c1ccccc1 (stereo not shown) [Compound 244, 2-[2-(3,3-dimethylpiperidin-1-yl)-2-oxoethyl]-N-(4-methyl-2-phenylpentyl)imidazo [1,2-a]pyridine-5-carboxamide]	< 2000 nM	
CCCN(C)C(=O)Cc1cn2c(C(=O)NCC(CC(C)C)c3ccccc3)cccc2n1 (stereo not shown) [Compound 246, N-(4-methyl-2-phenylpentyl)-2-{2-[methyl(propyl)amino]-2-oxoethyl)imidazo[1,2-a]pyridine-5-carboxamide]	< 2000 nM	
CC(C)CC(CNC(=O)c1cccc2nc(CC(=O)N3CCC4(CC3)OCCO4)cn12)c1ccccc1 (stereo not shown) [Compound 247, 2-[2-(1,4-dioxa-8-azaspiro[4.5]dec-8-yl)-2-oxoethyl]-N-(4-methyl-2-phenylpentyl)imidazo [1,2-a]pyridine-5-carboxamide]		IC50: < 2000 nM
N[C@@H]1CCN(Cc2cn3c(C(=O)NCCC45CC6CC(CC(C6)C4)C5)cccc3n2)C1 [Compound 248, N-(2-adamantan-1-ylethyl)-2-{[(3R)-3-aminopyrrolidin-1-yl]methyl}imidazo[1,2-a]pyridine-5-carboxamide]	< 2000 nM	
CC1(C)C2CC[C@@H](CNC(=O)c3cccc4nc(CN5CC[C@@H](N)C5)cn34)C1C2 (stereo partly drawn) [Compound 249, 2-{[(3R)-3-aminopyrrolidin-1-yl]methyl}-N-{[(2R)-6,6-dimethylbicyclo[3.1.1]hept-2-yl]methyl}imidazo[1,2-a]pyridine-5-carboxamide]	< 2000 nM	
COC[C@@H]1CCCN1C(=O)c1cn2c(C(=O)NCC(CC(C)C)c3ccccc3)cccc2n1 (stereo partly drawn) [Compound 257, 2-{[(2S)-2-(methoxymethyl)pyrrolidin-1-yl]carbonyl)-N-(4-methyl-2-phenylpentyl)imidazo [1,2-a]pyridine-5-carboxamide]	< 2000 nM	
CC(C)CC(CNC(=O)c1cccc2nc(C(=O)N3CCCC3)cn12)c1ccccc1 (stereo not shown) [Compound 260, N-(4-methyl-2-phenylpentyl)-2-(pyrrolidin-1-ylcarbonyl)imidazo [1,2-a]pyridine-5-carboxamide]	< 2000 nM	
CCCN(C)C(=O)c1cn2c(C(=O)NCC(CC(C)C)c3ccccc3)cccc2n1 (stereo not shown) [Compound 262, 2-N-methyl-5-N-(4-methyl-2-phenylpentyl)-2-N-propylimidazo[1,2-a]pyridine-2,5-dicarboxamide]	< 2000 nM	
CC(C)CC(CNC(=O)c1cccc2nc(C(=O)N3CCC4(CC3)OCCO4)cn12)c1ccccc1 (stereo not shown) [Compound 263, 2-(1,4-dioxa-8-azaspiro[4.5]dec-8-ylcarbonyl)-N-(4-methyl-2-phenylpentyl)imidazo [1,2-a]pyridine-5-carboxamide]		IC50: < 2000 nM
NCCSCc1cn2c(C(=O)NCC34CC5CC(CC(C5)C3)C4)cccc2n1 [Compound 266, N-(adamantan-1-ylmethyl)-2-{[(2-aminoethyl)thio]methyl}imidazo[1,2-a]pyridine-5-carboxamide]	< 2000 nM	
O=C(NCC12CC3CC(CC(C3)C1)C2)c1cccc2nc(CS(=O)(=O)CCO)cn12 [Compound 267, N-(adamantan-1-ylmethyl)-2-{[(2-hydroxyethyl)sulfonyl]methyl}imidazo[1,2-a]pyridine-5-carboxamide]	< 2000 nM	
CN(C)C(=O)NCCc1cn2c(C(=O)NCC34CC5CC(CC(C5)C3)C4)cccc2n1 [Compound 268, N-(adamantan-1-ylmethyl)-2-{2-[(dimethylcarbamoyl)amino]ethyl} imidazo[1,2-a] pyridine-5-carboxamide]	< 2000 nM	

— patent US8431593B2, “Heteroaryl amide derivatives” (H. Lundbeck A/S, priority 2006, dated 2013)
